The subject of test [1] is Helicobacter pylori. Nature of the test: Inhibition of binding on thin-layer chromatograms with soluble oligosaccharides. To be noted: for inhibition of binding of Helicobacter pylori to lactotetraosylceramide: 1 h room temperature, strain 17875 (FIG. 5). Here is the method: As a test for possible inhibition of binding by soluble sugars 35S-labeled Helicobacter pylori strains 002 and 032 were incubated for 1 h at room temperature with various concentrations (0.05 mg/ml, 0.1 mg/ml and 0.2 mg/ml) of lactotetraose (Accurate Chem. & Sci. Corp., Westbury, N.Y.) or lactose (J. T. Baker Chem. Co., Phillipsburg, N.J.) in PBS. Thereafter the chromatogram binding assay was performed as described above, using chromatograms with separated gangliotetraosylceramide, lactotetraosylceramide and reference glycosphingolipids.
The ability of soluble oligosaccharides to interfere with the binding of Helicobacter pylori to glycosphingolipids on thin-layer plates was examined by incubating radiolabelled Helicobacter pylori strain 17875 with free lactotetraose (0.1 mg/ml) or lactose (0.2 mg/ml) in PBS for 1 h at room temperature before the chromatogram binding assay of the suspensions. […] The lanes were: Galβ3GalNAcβ4Galβ4Glcβ1Cer (gangliotetraosylceramide), 4 μg (lane 1); Galβ3GlcNAcβ3Galβ4Glcβ1Cer (lactotetraosylceramide), 4 μg (lane 2); Galβ4GlcNAcβ3Galβ4Glcβ1Cer (neolactotetraosylceramide), 4 μg (lane 3). The glycosphingolipids were separated on aluminium-backed silica gel 60 HPTLC plates, using chloroform/methanol/water (60:35:8, by volume) as solvent system, and the binding assay was performed as described under “Materials and Methods”, using 2% BSA and 0.1% Tween 20 in PBS as coating buffer. Autoradiography was for 12 h.

Test [2] relates to Helicobacter pylori. Nature of the test: Chromatogram binding assay: 35S-labeled Helicobacter pylori to glycosphingolipids on thin-layer plates. To be noted: for dependence of binding on other lipids or bile salts (Tween 20, deoxycholate) in the thin-layer chromatogram assay: coating buffer with or without detergent (FIG. 1); for binding of Helicobacter pylori in mixtures of reference glycosphingolipids: strain 17875, non-acid fractions of dog small intestine, guinea pig small intestine, mouse faeces (FIG. 1); for binding of Helicobacter pylori to major acid glycosphingolipids of epithelial cells of human stomach: strains 002 and 032, identified tentatively by mobility on thin-layer chromatograms.

Entries after “also recorded” stand apart in the source; their conditions may differ.

For `OC[C@H]1O[C@@H](O[C@H]2[C@H](O)[C@@H](O)C(O)O[C@@H]2CO)[C@H](O)[C@@H](O)[C@H]1O` (stereo partly shown) [lactose, reference compound], the “inhibition of binding of Helicobacter pylori to lactotetraosylceramide” value in the test with Helicobacter pylori [1] (bacteria preincubated with 0.2 mg/ml in PBS) is “no inhibitory effect”. On to `CC(=O)N[C@H]1[C@H](O[C@H]2[C@@H](O)[C@@H](CO)O[C@@H](O[C@H]3[C@H](O)[C@@H](O)C(O)O[C@@H]3CO)[C@@H]2O)O[C@H](CO)[C@@H](O)[C@@H]1O[C@@H]1O[C@H](CO)[C@H](O)[C@H](O)[C@H]1O` (stereo partly shown) [lactotetraose, Galβ3GlcNAcβ3Galβ4Glc], for which, in the test with Helicobacter pylori [1] (bacteria preincubated with 0.1 mg/ml in PBS), the “inhibition of binding of Helicobacter pylori to lactotetraosylceramide” value is reported as “inhibited the binding”. In the test on Helicobacter pylori [1] (preincubation with soluble oligosaccharide (FIG. 5)), the “blocking of binding of H. pylori to gangliotetraosylceramide” value is listed as “able to block binding”. With “Galβ3GalNAcβ4Galβ4Glcβ1Cer [gangliotetraosylceramide]”, in the test on Helicobacter pylori [2], the “dependence of binding on other lipids or bile salts (Tween 20, deoxycholate) in the thin-layer chromatogram assay” value is “only marginally is affected” and the “binding of Helicobacter pylori in mixtures of reference glycosphingolipids” value is reported as “binding”.

For the molecule Galβ3GlcNAcβ3Galβ4Glcβ1Cer, in the test on Helicobacter pylori [2] (ceramide exclusively sphingosine and non-hydroxy 16:0 and 24:0 fatty acids, not shown), the “binding activity relative to lactotetraosylceramide from human meconium” value was “as active as the lactotetraosylceramide from human meconium”. Galβ3GlcNAcβ3Galβ4Glcβ1Cer [No. 2]: the “Helicobacter pylori isolates expressing the lactotetraosylceramide binding capacity” value with Helicobacter pylori [2] (66 isolates of Table I, lactotetraosylceramide of human meconium) came to 86%. For the same molecule, the “recognition by sialic acid-binding H. pylori strain CCUG 17874” value in the test on Helicobacter pylori [2] (FIG. 11 B) is on record as “recognised”. Moreover, the “recognition by H. pylori strain CCUG 17875 devoid of sialic acid binding capacity” value with Helicobacter pylori [2] (FIG. 11 C) is “recognised”. Moreover, in the test on Helicobacter pylori [2] (bacteria grown on agar and in broth, for 12 h and for 120 h), the “effect of bacterial growth conditions on binding” value is “not affected”. Moreover, the “dependence of binding on other lipids or bile salts (Tween 20, deoxycholate) in the thin-layer chromatogram assay” value with Helicobacter pylori [2] was “only when other lipids or bile salts, such as Tween 20 or deoxycholate, are used”. In the test on Helicobacter pylori [2] (gene coding for the Le^b-binding adhesin inactivated, data not shown), the “binding by babAlA2 mutant strain” value is “Binding”. Further, in the test on Helicobacter pylori [2] (of 66 isolates of Table I, lactotetraosylceramide of human meconium), the “number of Helicobacter pylori isolates expressing the lactotetraosylceramide binding capacity” value worked out at 57. On to “NeuAcα3Galβ4Glcβ1Cer [GM3, reference compound]”, for which the “binding of Helicobacter pylori to major acid glycosphingolipids of epithelial cells of human stomach” value in the test with Helicobacter pylori [2] is “No binding”; in the test on Helicobacter pylori [2] (listed as GM3 ganglioside) it was “non-existent”. For the molecule “gangliotriaosylceramide [reference compound]”, the “binding of Helicobacter pylori in mixtures of reference glycosphingolipids” value in the test on Helicobacter pylori [2] was “binding”. Same read-out and setting: under lactosylceramide [reference compound] stands “binding”. With “maltoheptaose(red) -HDA [reference compound]”, in the test on Helicobacter pylori [2] (4-hexadecylaniline (HDA) derivatives, compared with lactotetraosylceramide glycosphingolipid), the “binding activity with regard to Helicobacter pylori in TLC-overlay assay” value is “totally inactive”.

Regarding sulfatide [reference compound], in the test with Helicobacter pylori [2], the “binding of Helicobacter pylori to major acid glycosphingolipids of epithelial cells of human stomach” value is recorded as “No binding; also recorded: non-existent”.

These data come from US20040086514A1, “Novel helicobacter pylori-binding substances and use thereof” (priority 1999, published 2004).
